Measured values: PMC4470081, “Characterization of glutathione transferases involved in the pathogenicity of Alternaria brassicicola” (BMC Microbiology, 2015)

Key:
Type in all cases: biochemical, Alternaria brassicicola
AbGSTFuA1 [1] = tested on: T1, AbGSTFuA1; assay: GSH transferase, absorbance […] nm; settings: 3 mM GSH (table note; methods say 5 mM), pH 6.5
T1 construct: E. coli BL21(DE3) pRARE

AbGSTFuA1 [2] = tested on: T1, AbGSTFuA1; assay: GSH transferase, absorbance […] nm; settings: 3 mM GSH (table note; methods say 5 mM), phosphate pH 7.5
AbUre2pB1 [3] = tested on: T2, AbUre2pB1; assay: GSH transferase, absorbance […] nm; settings: 3 mM GSH (table note; methods say 5 mM), phosphate pH 7.5
T2 construct: E. coli BL21(DE3) pRARE

AbGTT1.2 [4] = tested on: T3, AbGTT1.2; assay: GSH transferase, absorbance […] nm; settings: 3 mM GSH (table note; methods say 5 mM), phosphate pH 7.5
T3 construct: E. coli BL21(DE3) pRARE

AbUre2pB1 [5] = tested on: T2, AbUre2pB1; assay: peroxidase, glutathione reductase/NADPH coupled, […] nm; settings: 3 mM GSH (table note; methods say 2 mM), Tris-HCl pH 8.0
AbGTT1.2 [6] = tested on: T3, AbGTT1.2; assay: as above; settings: 3 mM GSH (table note; methods say 2 mM), Tris-HCl pH 8.0

With `C=CCN=C=S` [Al-ITC] the Km (AbGSTFuA1 [1]) was 120 ± 20 µM.

Work on `O=[N+]([O-])c1ccc(Cl)c([N+](=O)[O-])c1` [CDNB, 1-chloro-2,4-dinitrobenzene] yielded a Km (AbGSTFuA1 [2]) of 400 ± 20 µM, a Km (AbUre2pB1 [3]) of 5010 ± 400 µM and a Km (AbGTT1.2 [4]) of 1820 ± 330 µM.

For `CC(C)(OO)c1ccccc1` [Cu-OOH], the Km (AbUre2pB1 [5]) was 770 ± 60 µM and the Km (AbGTT1.2 [6]) was 120 ± 40 µM.

`S=C=NCCc1ccccc1` [Ph-ITC] showed a Km (AbGSTFuA1 [1]) of 110 ± 20 µM.

Work on `S=C=NCc1ccccc1` [Bz-ITC] yielded a Km (AbGSTFuA1 [1]) of 180 ± 30 µM.
